Patent publication US10647747B2, “Cyclosporin derivatives and uses thereof” (S&T Global Inc., priority 2010, dated 2020)
*1 amine or outer side, *2 acyl side, *3 side chain or, on linkers, in order; H or OH if unused. Where a SMILES comes first, the peptide text is derived from it. [ ]: non-standard residue; d: D form. ξ: configuration not given here. MeBmt = C/C=C/C[C@@H](C)[C@@H](O)[C@H](NC)C(=O)O; X1 = CN([C@H](SCCCN1CCOCC1)C(=O)[*:2])[*:1]; X2 = CCN(CC)CCCS[C@H](C(=O)[*:2])N(C)[*:1]; X6 = CCN(CC)CCS[C@H](C(=O)[*:2])N(C)[*:1]; NMeIle(3ξ) = CCC(C)[C@H](NC)C(=O)O; NMeL = CN[C@@H](CC(C)C)C(=O)O; NMeV = CN[C@H](C(=O)O)C(C)C; Abu = CC[C@H](N)C(=O)O

Experiment: Stability testing: epimerization of cyclosporin derivatives in methanol, monitored by HPLC
Assay type: physicochemical
Conditions: for Epimerization % after 168 hours: Table 11, MeOH at 50° C.-58° C.
[1] = Table 10, MeOH at 50° C., 29 hours
[2] = Table 10, MeOH at 50° C., 77 hours
[3] = Table 10, MeOH at 50° C., 125 hours

## C/C=C/C[C@@H](C)[C@@H](O)[C@H]1C(=O)N[C@@H](CC)C(=O)N(C)[C@H](CSCCCN(C)C)C(=O)N(C)[C@@H](CC(C)(C)O)C(=O)N[C@@H](C(C)C)C(=O)N(C)[C@@H](CC(C)C)C(=O)N[C@@H](C)C(=O)N[C@H](C)C(=O)N(C)[C@@H](CC(C)C)C(=O)N(C)[C@@H](CC(C)C)C(=O)N(C)[C@@H](C(C)C)C(=O)N1C
  Epimerization % after 168 hours: 0%

## C/C=C/C[C@@H](C)[C@@H](O)[C@H]1C(=O)N[C@@H](CC)C(=O)N(C)[C@H](CSCCN(C)C)C(=O)N(C)[C@@H](CC(C)(C)O)C(=O)N[C@@H](C(C)C)C(=O)N(C)[C@@H](CC(C)C)C(=O)N[C@@H](C)C(=O)N[C@H](C)C(=O)N(C)[C@@H](CC(C)C)C(=O)N(C)[C@@H](CC(C)C)C(=O)N(C)[C@@H](C(C)C)C(=O)N1C
  Epimerization % after 168 hours: 0%

## C/C=C/C[C@@H](C)[C@@H](O)[C@H]1C(=O)N[C@@H](CC)C(=O)N(C)[C@H](COCCN(CC)CC)C(=O)N(C)[C@@H](CC(C)C)C(=O)N[C@@H](C(C)C)C(=O)N(C)[C@@H](CC(C)C)C(=O)N[C@@H](C)C(=O)N[C@H](C)C(=O)N(C)[C@@H](CC(C)C)C(=O)N(C)[C@@H](CC(C)C)C(=O)N(C)[C@@H](C(C)C)C(=O)N1C
  Epimerization % after 168 hours: 0%

## C/C=C/C[C@@H](C)[C@@H](O)[C@H]1C(=O)N[C@@H](CC)C(=O)N(C)[C@H](SCCN(CC)CC)C(=O)N(C)[C@@H](C(C)CC)C(=O)N[C@@H](C(C)C)C(=O)N(C)[C@@H](CC(C)C)C(=O)N[C@@H](C)C(=O)N[C@H](C)C(=O)N(C)[C@@H](CC(C)C)C(=O)N(C)[C@@H](CC(C)C)C(=O)N(C)[C@@H](C(C)C)C(=O)N1C (stereo partly shown) (cyclo(A[dA][NMeL][NMeL][NMeV][MeBmt][Abu][X6][NMeIle(3ξ)]V[NMeL]))
[1]
  Epimerization %: ~4%
[2]
  Epimerization %: ~10%
[3]
  Epimerization %: ~16%

## C/C=C/C[C@@H](C)[C@@H](O)[C@H]1C(=O)N[C@@H](CC)C(=O)N(C)[C@H](SCCCN(CC)CC)C(=O)N(C)[C@@H](CC(C)(C)O)C(=O)N[C@@H](C(C)C)C(=O)N(C)[C@@H](CC(C)C)C(=O)N[C@@H](C)C(=O)N[C@H](C)C(=O)N(C)[C@@H](CC(C)C)C(=O)N(C)[C@@H](CC(C)C)C(=O)N(C)[C@@H](C(C)C)C(=O)N1C
[1]
  Epimerization %: 0%
[2]
  Epimerization %: Less than 1%
[3]
  Epimerization %: ~12%

## C/C=C/C[C@@H](C)[C@@H](O)[C@H]1C(=O)N[C@@H](CC)C(=O)N(C)[C@H](SCCCN(CC)CC)C(=O)N(C)[C@@H](CC(C)(C)OC)C(=O)N[C@@H](C(C)C)C(=O)N(C)[C@@H](CC(C)C)C(=O)N[C@@H](C)C(=O)N[C@H](C)C(=O)N(C)[C@@H](CC(C)C)C(=O)N(C)[C@@H](CC(C)C)C(=O)N(C)[C@@H](C(C)C)C(=O)N1C
[1]
  Epimerization %: 0%
[2]
  Epimerization %: 0%
[3]
  Epimerization %: 0%

## C/C=C/C[C@@H](C)[C@@H](O)[C@H]1C(=O)N[C@@H](CC)C(=O)N(C)[C@H](SCCCN2CCOCC2)C(=O)N(C)[C@@H](C(C)C)C(=O)N[C@@H](C(C)C)C(=O)N(C)[C@@H](CC(C)C)C(=O)N[C@@H](C)C(=O)N[C@H](C)C(=O)N(C)[C@@H](CC(C)C)C(=O)N(C)[C@@H](CC(C)C)C(=O)N(C)[C@@H](C(C)C)C(=O)N1C (cyclo(A[dA][NMeL][NMeL][NMeV][MeBmt][Abu][X1][NMeV]V[NMeL]))
[1]
  Epimerization %: 0%
[2]
  Epimerization %: 0%
[3]
  Epimerization %: 0%

## C/C=C/C[C@@H](C)[C@@H](O)[C@H]1C(=O)N[C@@H](CC)C(=O)N(C)[C@H](COCCN(CC)CC)C(=O)N(C)[C@@H](CC(C)(C)O)C(=O)N[C@@H](C(C)C)C(=O)N(C)[C@@H](CC(C)C)C(=O)N[C@@H](C)C(=O)N[C@H](C)C(=O)N(C)[C@@H](CC(C)C)C(=O)N(C)[C@@H](CC(C)C)C(=O)N(C)[C@@H](C(C)C)C(=O)N1C
  Epimerization % after 168 hours: 0%

## C/C=C/C[C@@H](C)[C@@H](O)[C@H]1C(=O)N[C@@H](CC)C(=O)N(C)[C@H](SCCCN2CCOCC2)C(=O)N(C)[C@@H](C(C)CC)C(=O)N[C@@H](C(C)C)C(=O)N(C)[C@@H](CC(C)C)C(=O)N[C@@H](C)C(=O)N[C@H](C)C(=O)N(C)[C@@H](CC(C)C)C(=O)N(C)[C@@H](CC(C)C)C(=O)N(C)[C@@H](C(C)C)C(=O)N1C (stereo partly shown) (cyclo(A[dA][NMeL][NMeL][NMeV][MeBmt][Abu][X1][NMeIle(3ξ)]V[NMeL]))
[1]
  Epimerization %: 0%
[2]
  Epimerization %: 0%
[3]
  Epimerization %: 0%

## C/C=C/C[C@@H](C)[C@@H](O)[C@H]1C(=O)N[C@@H](CC)C(=O)N(C)[C@H](CSCCCN(CC)CC)C(=O)N(C)[C@@H](CC(C)(C)O)C(=O)N[C@@H](C(C)C)C(=O)N(C)[C@@H](CC(C)C)C(=O)N[C@@H](C)C(=O)N[C@H](C)C(=O)N(C)[C@@H](CC(C)C)C(=O)N(C)[C@@H](CC(C)C)C(=O)N(C)[C@@H](C(C)C)C(=O)N1C
  Epimerization % after 168 hours: 0%

## C/C=C/C[C@@H](C)[C@@H](O)[C@H]1C(=O)N[C@@H](CC)C(=O)N(C)[C@H](SCCN(C)C)C(=O)N(C)[C@@H](CC(C)C)C(=O)N[C@@H](C(C)C)C(=O)N(C)[C@@H](CC(C)C)C(=O)N[C@@H](C)C(=O)N[C@H](C)C(=O)N(C)[C@@H](CC(C)C)C(=O)N(C)[C@@H](CC(C)C)C(=O)N(C)[C@@H](C(C)C)C(=O)N1C [drawing 1930]
Table 7, MeOH at 65° C., 2 hours
  Epimerization %: ~12%
Table 7, MeOH at 65° C., 4 hours
  Epimerization %: ~19%
Table 7, MeOH at 65° C., 6 hours
  Epimerization %: ~23%

## C/C=C/C[C@@H](C)[C@@H](O)[C@H]1C(=O)N[C@@H](CC)C(=O)N(C)[C@H](SCCCN2CCOCC2)C(=O)N(C)[C@@H](CC(C)(C)O)C(=O)N[C@@H](C(C)C)C(=O)N(C)[C@@H](CC(C)C)C(=O)N[C@@H](C)C(=O)N[C@H](C)C(=O)N(C)[C@@H](CC(C)C)C(=O)N(C)[C@@H](CC(C)C)C(=O)N(C)[C@@H](C(C)C)C(=O)N1C [drawing 1931]
Table 8, 2 hours
  Epimerization % in MeOH at 65° C.: 0%
Table 8, 4 hours
  Epimerization % in MeOH at 65° C.: 0%
Table 8, 6 hours
  Epimerization % in MeOH at 65° C.: 0%
Table 8, 8 hours
  Epimerization % in MeOH at 65° C.: Less than 1%
Table 8, 10 hours
  Epimerization % in MeOH at 65° C.: ~10%

## C/C=C/C[C@@H](C)[C@@H](O)[C@H]1C(=O)N[C@@H](CC)C(=O)N(C)[C@H](CSCCN(CC)CC)C(=O)N(C)[C@@H](CC(C)C)C(=O)N[C@@H](C(C)C)C(=O)N(C)[C@@H](CC(C)C)C(=O)N[C@@H](C)C(=O)N[C@H](C)C(=O)N(C)[C@@H](CC(C)C)C(=O)N(C)[C@@H](CC(C)C)C(=O)N(C)[C@@H](C(C)C)C(=O)N1C (single isomer, unassigned)
  Epimerization % after 168 hours: 0%

## C/C=C/C[C@@H](C)[C@@H](O)[C@H]1C(=O)N[C@@H](CC)C(=O)N(C)[C@H](SCCN(C)C)C(=O)N(C)[C@@H](CC(C)C)C(=O)N[C@@H](C(C)C)C(=O)N(C)[C@@H](CC(C)C)C(=O)N[C@@H](C)C(=O)N[C@H](C)C(=O)N(C)[C@@H](CC(C)C)C(=O)N(C)[C@@H](CC(C)C)C(=O)N(C)[C@@H](C(C)C)C(=O)N1C [drawing 1933]
[1]
  Epimerization %: ~26%
[2]
  Epimerization %: ~32%
[3]
  Epimerization %: ~35%

## C/C=C/C[C@@H](C)[C@@H](O)[C@H]1C(=O)N[C@@H](CC)C(=O)N(C)[C@H](SCCCN(CC)CC)C(=O)N(C)[C@@H](C(C)CC)C(=O)N[C@@H](C(C)C)C(=O)N(C)[C@@H](CC(C)C)C(=O)N[C@@H](C)C(=O)N[C@H](C)C(=O)N(C)[C@@H](CC(C)C)C(=O)N(C)[C@@H](CC(C)C)C(=O)N(C)[C@@H](C(C)C)C(=O)N1C (stereo partly shown) (cyclo(A[dA][NMeL][NMeL][NMeV][MeBmt][Abu][X2][NMeIle(3ξ)]V[NMeL]))
[1]
  Epimerization %: 0%
[2]
  Epimerization %: 0%
[3]
  Epimerization %: 0%

## C/C=C/C[C@@H](C)[C@@H](O)[C@H]1C(=O)N[C@@H](CC)C(=O)N(C)[C@H](CSCCN(CC)CC)C(=O)N(C)[C@@H](CC(C)(C)O)C(=O)N[C@@H](C(C)C)C(=O)N(C)[C@@H](CC(C)C)C(=O)N[C@@H](C)C(=O)N[C@H](C)C(=O)N(C)[C@@H](CC(C)C)C(=O)N(C)[C@@H](CC(C)C)C(=O)N(C)[C@@H](C(C)C)C(=O)N1C
  Epimerization % after 168 hours: 0%

## C/C=C/C[C@@H](C)[C@@H](O)[C@H]1C(=O)N[C@@H](CC)C(=O)N(C)[C@H](SCCCN2CCOCC2)C(=O)N(C)[C@@H](CC(C)(C)OC)C(=O)N[C@@H](C(C)C)C(=O)N(C)[C@@H](CC(C)C)C(=O)N[C@@H](C)C(=O)N[C@H](C)C(=O)N(C)[C@@H](CC(C)C)C(=O)N(C)[C@@H](CC(C)C)C(=O)N(C)[C@@H](C(C)C)C(=O)N1C [drawing 1937]
[1]
  Epimerization %: 0%
[2]
  Epimerization %: 0%
[3]
  Epimerization %: 0%

## C/C=C/C[C@@H](C)[C@@H](O)[C@H]1C(=O)N[C@@H](CC)C(=O)N(C)[C@H](SCCCN(CC)CC)C(=O)N(C)[C@@H](C(C)C)C(=O)N[C@@H](C(C)C)C(=O)N(C)[C@@H](CC(C)C)C(=O)N[C@@H](C)C(=O)N[C@H](C)C(=O)N(C)[C@@H](CC(C)C)C(=O)N(C)[C@@H](CC(C)C)C(=O)N(C)[C@@H](C(C)C)C(=O)N1C (cyclo(A[dA][NMeL][NMeL][NMeV][MeBmt][Abu][X2][NMeV]V[NMeL]))
[1]
  Epimerization %: 0%
[2]
  Epimerization %: 0%
[3]
  Epimerization %: 0%

## C/C=C/C[C@@H](C)[C@@H](O)[C@H]1C(=O)N[C@@H](CC)C(=O)N(C)[C@H](COCCN(C)C)C(=O)N(C)[C@@H](CC(C)C)C(=O)N[C@@H](C(C)C)C(=O)N(C)[C@@H](CC(C)C)C(=O)N[C@@H](C)C(=O)N[C@H](C)C(=O)N(C)[C@@H](CC(C)C)C(=O)N(C)[C@@H](CC(C)C)C(=O)N(C)[C@@H](C(C)C)C(=O)N1C
  Epimerization % after 168 hours: 0%
